Laboratory results as given in US10576102B2, “KOC1-derived peptide and vaccine including same” (ONCOTHERAPY SCIENCE, INC., priority 2014, dated 2020).

What was measured:
Format in all cases: cell-based, human
[1] = tested on: peptide-pulsed C1R-A33; experiment: IFN-gamma ELISA of CTL lines and CTL clones (HLA-A*3303)
Method: (§1) CTLs were propagated in culture using methods similar to those disclosed by Riddell et al. (Walter E A et al., N Engl J Med 1995, 333(16): 1038-44; Riddell S R et al., Nat Med 1996, 2(2): 216-23). The CTLs were co-cultured in a total of 25 ml AIM-V medium containing 5% AS (AIM-V/5% AS) and 40 ng/ml anti-CD3 antibody with two types of Mitomycin C-treated human B lymphoblastoid cell lines at 5×10^6 cells/flask. One day after beginning of the culturing, 120 IU/ml IL-2 was added to the culture. On days 5, 8 and 11, a fresh AIM-V/5% AS medium containing 30 IU/ml IL-2 was added to the culture (Tanaka H et al., Br J Cancer 2001, 84(1): 94-9; Umano Y et al., Br J Cancer 2001, 84(8): 1052-7; Uchida N et al., Clin Cancer Res 2004, 10(24): 8577-86; Suda T et al., Cancer Sci 2006, 97(5): 411-9; Watanabe T et al., Cancer Sci 2005, 96(8): 498-506).
(§2) Dilution of CTLs was carried out to make 0.3, 1 and 3 cells/well in 96 round-bottomed microtiter plates (Nalge Nunc International). The CTLs were co-cultured with two types of Mitomycin C-treated human B lymphoblastoid cell lines at 1×10^4 cells/well in a total of 150 micro-1/well AIM-V/5% AS medium with 30 ng/ml anti-CD3 antibody and 125 IU/ml IL-2. Ten days later, IL-2 was added to the medium at 50 micro-1/well to reach a final concentration of 125 IU/ml. On day 14, the CTL activity was tested, and the CTL clones were propagated using the same method as described above (Uchida N et al., Clin Cancer Res 2004, 10(24): 8577-86; Suda T et al., Cancer Sci 2006, 97(5): 411-9; Watanabe T et al., Cancer Sci 2005, 96(8): 498-506).
(§3) Specifically, peptide-pulsed C1R-A33 (1×10^4 cells/well) was prepared as the stimulator cell. The induced CTLs, i.e., CTL lines and CTL clones, were used as the responder cell. The IFN-gamma ELISPOT assay and IFN-gamma ELISA were performed according to the manufacturer's manual.

[2] = tested on: peptide-pulsed C1R-A33; experiment: In vitro CTL induction, IFN-gamma ELISPOT assay (HLA-A*3303); settings: CTLs induced with peptide-pulsed DCs from HLA-A*3303-positive volunteers; day 21; vs peptide-pulsed C1R-A33, compared with unpulsed control
Method: C1R (C1R-A33) that stably expresses HLA-A*3303 was used as a stimulator cell. A cDNA encoding the open-reading frame of HLA-A*3303 was amplified by PCR and cloned into an expression vector. C1R cells were transfected with the expression vector, and then selected using G418 (Invitrogen) for two weeks. The G418-selected cells were seeded into wells containing G418-added culture medium in a 96-well plate, and further cultured for 30 days. The exogenous HLA-A*3303 expression in C1R cells was verified by flow cytometric analysis.
Monocyte-derived dendritic cells (DCs) were used as the antigen-presenting cell to induce a cytotoxic T lymphocyte (CTL) response against peptides presented on human leukocyte antigens (HLAs). As described in the other sections, DCs were generated in vitro (Nakahara S et al., Cancer Res 2003, 63(14): 4112-8). Specifically, peripheral-blood mononuclear cells isolated from healthy volunteers (HLA-A*3303-positive) with the Ficoll-Paque plus solution (Pharmacia) were separated by attaching to plastic tissue culture dishes (Becton Dickinson) and concentrated as a monocyte fraction. The monocyte-concentrated population was cultured in the presence of 1000 IU/ml granulocyte macrophage colony-stimulating factor (R&D System) and 1000 IU/ml interleukin(IL)-4 (R&D System) in an AIM-V medium (Invitrogen) containing 2% heat-inactivated autologous serum (AS). After seven days of culturing, the cytokine-induced DCs were pulsed with 20 micro-g/ml each of the synthesized peptides in an AIM-V medium at 37 degrees C. for three hours in the presence of 3 micro-g/ml beta 2-microglobulin. The generated cells appeared to express on their cell surface DC-associated molecules such as CD80, CD83, CD86 and HLA class II (data not shown). Next, these peptide-pulsed DCs were inactivated by X-ray irradiation (20 Gy), and mixed in a 1:20 ratio with autologous CD8^+ T cells obtained by positive selection using the CD8 Positive Isolation Kit (Dynal). These culture products were seeded in a 48-well plate (Corning). Each well was made to contain 1.5×10^4 peptide-pulsed DCs, 3×10^5 CD8^+ T cells and 10 ng/ml IL-7 (R&D System) in 0.5 ml of the AIM-V/2% AS medium. Three days later, these culture products were added with a final concentration of 20 IU/ml IL-2 (CHIRON). On day 7 and day 14, T cells were further stimulated with peptide-pulsed autologous DCs. The DCs were prepared every time by the same method as above. On day 21, after the third peptide stimulation, CTLs were examined against the peptide-pulsed C1R-A33 cell by a human interferon (IFN)-gamma enzyme-linked immunospot (ELISPOT) assay (Tanaka H et al., Br J Cancer 2001, 84(1): 94-9; Umano Y et. al., Br J Cancer 2001, 84(8): 1052-7; Uchida N et al., Clin Cancer Res 2004, 10(24): 8577-86; Suda T et al., Cancer Sci 2006, 97(5): 411-9; Watanabe T et al., Cancer Sci 2005, 96(8): 498-506).
as §3

[3] = tested on: peptide-pulsed C1R-A11; experiment: IFN-gamma ELISA of CTL lines and CTL clones (HLA-A*1101); settings: CTL lines; target cells pulsed with the peptide vs not pulsed; C1R-A11
Method: as §1, §2
Specifically, peptide-pulsed C1R-A11 (1×10^4 cells/well) was prepared as the stimulator cell. The induced CTLs, i.e., CTL lines and CTL clones, were used as the responder cell. The IFN-gamma ELISPOT assay and IFN-gamma ELISA were performed according to the manufacturer's manual.

| Sequence | IFN-gamma production of CTL clones, ELISA ([1]; CTL clones by limiting dilution, peptide-pulsed C1R-A33, listed as KOC1-A33-10-281) | IFN-gamma production of CTL lines, ELISA ([1]; CTL lines, target cells pulsed with the peptide vs not pulsed, C1R-A33) | peptide-specific CTL activity (IFN-gamma production), ELISPOT [2] | IFN-gamma production of CTL lines, ELISA [3] |
| --- | --- | --- | --- | --- |
| ILAHNNFVGR (a peptide derived from KOC1) [SEQ ID NO: 52] | Potent IFN-gamma production | potent IFN-gamma production | potent IFN-gamma production |  |
| TQFVGAIIGK (a peptide derived from KOC1) [SEQ ID NO: 30] |  |  |  | potent IFN-gamma production |
